Test results: ChEMBL document CHEMBL1795324, “New class of acetylcholinesterase inhibitors from the stem bark of Knema laurina and their structural insights” (Bioorg Med Chem Lett, 2011)

The compounds below were run against Acetylcholinesterase (Electrophorus electricus, UniProt O42275).
Sequence of Acetylcholinesterase (O42275 whole entry): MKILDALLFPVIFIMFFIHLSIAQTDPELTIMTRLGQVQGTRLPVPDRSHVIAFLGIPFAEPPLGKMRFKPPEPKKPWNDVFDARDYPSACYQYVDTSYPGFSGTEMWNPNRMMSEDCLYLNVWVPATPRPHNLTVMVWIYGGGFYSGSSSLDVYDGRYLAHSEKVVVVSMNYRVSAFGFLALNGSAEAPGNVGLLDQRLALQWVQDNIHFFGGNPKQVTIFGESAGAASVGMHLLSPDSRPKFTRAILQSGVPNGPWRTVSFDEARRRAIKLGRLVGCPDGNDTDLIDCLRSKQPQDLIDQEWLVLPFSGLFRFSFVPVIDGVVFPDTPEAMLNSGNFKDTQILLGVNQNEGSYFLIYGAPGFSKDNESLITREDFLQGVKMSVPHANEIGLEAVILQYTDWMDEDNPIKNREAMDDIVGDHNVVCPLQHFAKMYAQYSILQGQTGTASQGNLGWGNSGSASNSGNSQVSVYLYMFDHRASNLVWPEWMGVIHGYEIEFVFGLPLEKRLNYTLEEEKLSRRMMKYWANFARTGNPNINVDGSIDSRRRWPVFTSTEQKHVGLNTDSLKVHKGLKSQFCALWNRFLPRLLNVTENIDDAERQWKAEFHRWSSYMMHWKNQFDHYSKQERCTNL
Description: Inhibition of electric eel acetylcholinesterase using acetylthiocholine iodide as substrate after 10 mins by Ellman's spectrophotometric method
For `CCCCC[C@H](O)/C=C/CCCCCCCc1cccc(O)c1C(=O)O`, the IC50 was 3.18 µM.
In the case of `CCCCC[C@H](O)/C=C/CCCCCCCc1cccc(OC)c1C(=O)OC`, the IC50 is reported as 342 µM.
Work on `CCCC/C=C\CCCCCCCCCc1cccc(O)c1` yielded an IC50 of 17.2 µM.
In the case of `CCCC/C=C\CCCCCCCCCc1cccc(OC)c1`, the IC50 is reported as 178 µM.
`CCCC/C=C\CCCCCCCCCc1cccc(OC)c1C(=O)OC` gave an IC50 of 358 µM.
With `CCCCCC/C=C\CCCCCCCCCc1cccc(OC)c1C(=O)OC` the IC50 was 303 µM.
With `CCCCCC/C=C\CCCCCCCCCc1cccc(O)c1` the IC50 was 13.1 µM.
